Experiments:
[1] = biological target: T1, NUAK2 (h) (Homo sapiens, UniProt Q9H093); assay: NUAK2 enzymatic assay (radiometric, Eurofins); type: biochemical; conditions: full-length recombinant enzyme
T1 construct: This assay was done radiometrically using full-length, recombinant enzyme; purchased Eurofins
T1 sequence (Q9H093 1-628): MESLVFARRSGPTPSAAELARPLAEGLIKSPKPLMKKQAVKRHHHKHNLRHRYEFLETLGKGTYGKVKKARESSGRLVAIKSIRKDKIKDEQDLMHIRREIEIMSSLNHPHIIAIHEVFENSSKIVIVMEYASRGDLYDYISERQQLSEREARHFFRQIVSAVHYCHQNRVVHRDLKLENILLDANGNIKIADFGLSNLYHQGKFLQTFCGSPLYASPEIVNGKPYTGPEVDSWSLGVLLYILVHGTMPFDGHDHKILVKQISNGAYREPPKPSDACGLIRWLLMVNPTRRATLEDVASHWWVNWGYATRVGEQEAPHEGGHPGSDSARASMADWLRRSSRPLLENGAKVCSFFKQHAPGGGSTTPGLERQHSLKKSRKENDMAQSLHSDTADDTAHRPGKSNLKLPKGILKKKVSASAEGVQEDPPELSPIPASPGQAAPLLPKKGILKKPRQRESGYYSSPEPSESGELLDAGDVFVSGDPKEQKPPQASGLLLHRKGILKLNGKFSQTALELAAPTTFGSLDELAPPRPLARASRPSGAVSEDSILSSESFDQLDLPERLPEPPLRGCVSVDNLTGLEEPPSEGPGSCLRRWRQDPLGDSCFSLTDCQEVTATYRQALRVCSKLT
In short: (§1)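 Full-length recombinant NUAK2 incubated 40 min at room temperature in 8 mM MOPS pH 7.0, 0.2 mM EDTA, 10 mM magnesium acetate, 300 μM peptide substrate and 33P-ATP. Stopped with 0.5% phosphoric acid; filter-bound label counted by scintillation. IC50 reported as ranges; NUAK1 and Aurora A served as counter-screens.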

[2] = biological target: T2, NUAK1 (Homo sapiens, UniProt O60285); assay: Counter-screen against NUAK1; type: biochemical
T2 sequence (O60285 1-661): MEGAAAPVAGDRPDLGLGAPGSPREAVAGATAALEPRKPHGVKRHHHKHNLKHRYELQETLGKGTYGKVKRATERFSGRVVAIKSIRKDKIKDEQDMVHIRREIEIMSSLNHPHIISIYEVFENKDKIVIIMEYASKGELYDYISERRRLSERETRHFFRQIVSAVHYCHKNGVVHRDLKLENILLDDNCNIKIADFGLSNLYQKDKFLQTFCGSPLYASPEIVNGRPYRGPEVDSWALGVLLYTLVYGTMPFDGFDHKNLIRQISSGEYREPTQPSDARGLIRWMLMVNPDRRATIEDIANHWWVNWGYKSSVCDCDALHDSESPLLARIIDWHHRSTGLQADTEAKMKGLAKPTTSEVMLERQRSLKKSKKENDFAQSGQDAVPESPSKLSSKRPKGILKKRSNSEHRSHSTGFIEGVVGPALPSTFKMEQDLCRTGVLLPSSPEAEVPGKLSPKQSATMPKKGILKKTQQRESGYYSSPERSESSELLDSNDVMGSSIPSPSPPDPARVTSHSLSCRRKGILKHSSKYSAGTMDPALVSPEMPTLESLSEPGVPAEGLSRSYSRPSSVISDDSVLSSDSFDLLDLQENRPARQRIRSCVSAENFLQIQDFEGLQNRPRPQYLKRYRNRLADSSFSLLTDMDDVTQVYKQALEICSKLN
In short: as §1

[3] = biological target: T3, Aurora A (Homo sapiens, UniProt O14965); assay: Counter-screen against Aurora A; type: biochemical; conditions: read-out: AUR-A (IC50)
T3 sequence (O14965 1-403): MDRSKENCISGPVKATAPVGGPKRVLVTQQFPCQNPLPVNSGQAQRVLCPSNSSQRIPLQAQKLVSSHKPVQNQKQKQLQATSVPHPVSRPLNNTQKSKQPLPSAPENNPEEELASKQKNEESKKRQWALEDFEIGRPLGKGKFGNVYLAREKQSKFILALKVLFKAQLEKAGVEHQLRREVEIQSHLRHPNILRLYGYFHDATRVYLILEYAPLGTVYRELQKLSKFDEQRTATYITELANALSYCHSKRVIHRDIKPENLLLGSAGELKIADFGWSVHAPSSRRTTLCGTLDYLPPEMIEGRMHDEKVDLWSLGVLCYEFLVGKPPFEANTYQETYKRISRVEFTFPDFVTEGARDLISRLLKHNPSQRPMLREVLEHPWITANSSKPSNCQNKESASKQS
In short: as §1

[4] = tested on: MDA-MB-231 cells; assay: Tumor cell growth inhibition assay (ATPlite, 5 days); type: cell-based; conditions: Homo sapiens, 120 h; breast tumor cell line MDA-MB-231, 5 days
Method: MDA-MB-231 cells were seeded into a 384-well plate at 1,000 cells/well in 50 μl medium (Alpha-MEM containing 10% FBS, […] Normocin, Invivogen and […] Gentamycin, Invitrogen). Plates were then incubated overnight for the cells to attach. An HP D300 digital dispenser was used to dose cells with DMSO or test compounds across a 16-point range of concentrations (high dose of 10 uM to low dose of 5 nM). Plates were incubated in a humidified 5% CO2 incubator at 37° C. After 5 days, plates were removed from the incubator and equilibrated to room temperature. An equal volume of ATPlite assay reagent was then added to each well, and samples processed according to manufacturer's instructions (Perkin Elmer). Luminescent signals were then measured using an Envision plate reader equipped with a US-Luminescence detector.

| Structure (SMILES) | IC50 [1] [µM] | IC50 [2] [µM] | IC50 [3] [µM] | IC50 [4] [µM] |
| --- | --- | --- | --- | --- |
| COc1cc2c(cc1Nc1ncc(C(F)(F)F)c(Nc3cccc4c3C(=O)NC4)n1)CCNC2 [Compound I-27] | 0.011 to 0.1 | 0.011 to 0.1 | > 1 | 0.036 |
| O=C1NCc2cccc(Nc3nc(Nc4ccc(N5[C@@H]6CC[C@H]5CNC6)cc4OC(F)F)ncc3C(F)(F)F)c21 [Compound I-70, 7-((2-((4-((1R,5S)-3,8-diazabicyclo[3.2.1]octan-8-yl)-2-(difluoromethoxy)phenyl)amino)-5-(trifluoromethyl)pyrimidin-4-yl)amino)isoindolin-1-one] | 0.0001 to 0.01 | 0.011 to 0.1 | 0.101 to 1 | – |
| O=C1NCc2cccc(Nc3nc(Nc4ccc(N5C[C@H]6C[C@@H]5CN6)cc4OC(F)F)ncc3C(F)(F)F)c21 [Compound I-71, 7-((2-((4-((1R,4R)-2,5-diazabicyclo[2.2.1]heptan-2-yl)-2-(difluoromethoxy)phenyl)amino)-5-(trifluoromethyl)pyrimidin-4-yl)amino)isoindolin-1-one] | 0.0001 to 0.01 | 0.011 to 0.1 | 0.101 to 1 | – |
| O=C1NCc2cccc(Nc3nc(Nc4ccc(N5C[C@H]6C[C@@H]5CN6)cc4OC(F)F)ncc3Cl)c21 [Compound I-72, 7-((2-((4-((1R,4R)-2,5-diazabicyclo[2.2.1]heptan-2-yl)-2-(difluoromethoxy)phenyl)amino)-5-chloropyrimidin-4-yl)amino)isoindolin-1-one] | 0.0001 to 0.01 | 0.011 to 0.1 | 0.101 to 1 | – |
| CC(C)N1C[C@@H]2C[C@H]1CN2c1ccc(Nc2ncc(C(F)(F)F)c(Nc3cccc4c3C(=O)NC4)n2)c(OC(F)F)c1 [Compound I-73, 7-((2-((2-(difluoromethoxy)-4-((1S,4S)-5-isopropyl-2,5-diazabicyclo[2.2.1]heptan-2-yl)phenyl)amino)-5-(trifluoromethyl)pyrimidin-4-yl)amino)isoindolin-1-one] | 0.0001 to 0.01 | 0.0001 to 0.01 | 0.101 to 1 | – |
| O=C1NCc2cccc(Nc3nc(Nc4ccc(N5CCCNCC5)cc4OC(F)F)ncc3Cl)c21 [Compound I-74, 7-((2-((4-(1,4-diazepan-1-yl)-2-(difluoromethoxy)phenyl)amino)-5-chloropyrimidin-4-yl)amino)isoindolin-1-one] | 0.0001 to 0.01 | 0.011 to 0.1 | 0.101 to 1 | – |
| O=C1NCc2cccc(Nc3nc(Nc4ccc(N5[C@@H]6CC[C@H]5CNC6)cc4OC(F)F)ncc3Cl)c21 [Compound I-75, 7-((2-((4-((1R,5S)-3,8-diazabicyclo[3.2.1]octan-8-yl)-2-(difluoromethoxy)phenyl)amino)-5-chloropyrimidin-4-yl)amino)isoindolin-1-one] | 0.0001 to 0.01 | 0.0001 to 0.01 | 0.0001 to 0.01 | – |
| O=C1NCc2cccc(Nc3nc(Nc4ccc(N5C[C@H]6CNC[C@H]6C5)cc4OC(F)F)ncc3Cl)c21 [Compound I-76, 7-((5-chloro-2-((2-(difluoromethoxy)-4-((3aR,6aS)-hexahydropyrrolo[3,4-c]pyrrol-2(1H)-yl)phenyl)amino)pyrimidin-4-yl)amino)isoindolin-1-one] | 0.0001 to 0.01 | 0.011 to 0.1 | 0.101 to 1 | – |
| O=C1NCc2cccc(Nc3nc(Nc4ccc(N5CCC6(CCNCC6)CC5)cc4OC(F)F)ncc3Cl)c21 [Compound I-77, 7-((5-chloro-2-((2-(difluoromethoxy)-4-(3,9-diazaspiro[5.5]undecan-3-yl)phenyl)amino)pyrimidin-4-yl)amino)isoindolin-1-one] | 0.011 to 0.1 | 0.011 to 0.1 | 0.101 to 1 | – |
| CCN1CCN(C2CCN(c3ccc(Nc4ncc(Cl)c(Nc5cccc6c5C(=O)NC6)n4)c(OC(F)F)c3)CC2)CC1 [Compound I-80, 7-((5-chloro-2-((2-(difluoromethoxy)-4-(4-(4-ethylpiperazin-1-yl)piperidin-1-yl)phenyl)amino)pyrimidin-4-yl)amino)isoindolin-1-one] | 0.011 to 0.1 | 0.011 to 0.1 | 0.101 to 1 | – |
| CC(C)N1CCN(C2CCN(c3ccc(Nc4ncc(Cl)c(Nc5cccc6c5C(=O)NC6)n4)c(OC(F)F)c3)CC2)CC1 [Compound I-81, 7-((5-chloro-2-((2-(difluoromethoxy)-4-(4-(4-isopropylpiperazin-1-yl)piperidin-1-yl)phenyl)amino)pyrimidin-4-yl)amino)isoindolin-1-one] | 0.011 to 0.1 | 0.011 to 0.1 | 0.101 to 1 | – |

Results, then the compound that gave them:

| IC50 [1] [µM] | IC50 [2] [µM] | IC50 [3] [µM] | IC50 [4] [µM] | Structure (SMILES) |
| --- | --- | --- | --- | --- |
| 0.011 to 0.1 | 0.011 to 0.1 | 0.101 to 1 | 0.038 | CCN1CCN(C2CCN(c3ccc(Nc4ncc(C(F)(F)F)c(Nc5cccc6c5C(=O)NC6)n4)c(OC(F)F)c3)CC2)CC1 [Compound I-33, 7-((2-((2-(difluoromethoxy)-4-(4-(4-ethylpiperazin-1-yl)piperidin-1-yl)phenyl)amino)-5-(trifluoromethyl)pyrimidin-4-yl)amino)isoindolin-1-one] |
| 0.0001 to 0.01 | 0.011 to 0.1 | 0.101 to 1 | – | CCN1CCN(c2ccc(Nc3ncc(C(F)(F)F)c(Nc4cccc5c4C(=O)NC5)n3)c(OC(F)F)c2)CC1 [Compound I-78, 7-((2-((2-(difluoromethxoy)-4-(4-ethylpiperazin-1-yl)phenyl)amino)-5-(trifluoromethyl)pyrimidin-4-yl)amino)isoindolin-1-one] |
| 0.0001 to 0.01 | 0.011 to 0.1 | 0.101 to 1 | – | CN1CCN(c2ccc(Nc3ncc(C(F)(F)F)c(Nc4cccc5c4C(=O)NC5)n3)c(OC(F)F)c2)CC1 [Compound I-79, 7-((2-((2-(difluoromethxoy)-4-(4-methylpiperazin-1-yl)phenyl)amino)-5-(trifluoromethyl)pyrimidin-4-yl)amino)isoindolin-1-one] |
| 0.0001 to 0.01 | 0.011 to 0.1 | 0.101 to 1 | – | CN1C[C@@H]2C[C@H]1CN2c1ccc(Nc2ncc(C(F)(F)F)c(Nc3cccc4c3C(=O)NC4)n2)c(OC(F)F)c1 [Compound I-82, 7-((2-((2-(difluoromethoxy)-4-((1S,4S)-5-methyl-2,5-diazabicyclo[2.2.1]heptan-2-yl)phenyl)amino)-5-(trifluoromethyl)pyrimidin-4-yl)amino)isoindolin-1-one] |
| 0.0001 to 0.01 | 0.011 to 0.1 | > 1 | – | Cc1cnc(Nc2ccc(N3CCN(C)CC3)cc2OC(F)F)nc1Nc1cccc2c1C(=O)NC2 [Compound I-83, 7-((2-((2-(difluoromethoxy)-4-(4-methylpiperazin-1-yl)phenyl)amino)-5-methylpyrimidin-4-yl)amino)isoindolin-1-one] |

— patent publication US12643886B2 (Ontario Institute for Cancer Research (OICR), priority 2021, dated 2026)
